Measurements published in patent US10532053B2, “Histone deacetylase inhibitor, and preparation method and use thereof” (GUANGDONG ZHONGSHENG PHARMACEUTICAL CO., LTD, priority 2015, dated 2020).
Like-named read-outs stand apart in the source and are kept apart here.

What was measured:
Colon cancer HT29 = assay: Cell proliferative activity (MTT / cck-8); assay type: cell-based; conditions: Homo sapiens, HT-29, read-out: Half-Inhibitory Concentration IC50 HT29
HDAC3 = HDAC3 (Homo sapiens, UniProt O15379); conditions: read-out: IC50 HDAC3; Table 4, Class I
Protocol: The HDAC inhibitory activity was determined by fluorescence-coupled acetylated peptide substrate assay (Lys-Ac-AMC). […] The small molecule compounds of the present invention were prepared by being dissolved in 100% DMSO. HDAC was prepared in a buffer at a certain concentration as an enzyme solution; trypsin and fluorescent group 4-amino-7-coumarin coupled-acetylated peptide (Ac-peptide) substrate were prepared in a buffer at a certain concentration as a substrate solution. The compounds were added into the reaction wells in a 384-well plate at a designed concentration of 10 μM, 1 μM, 0.5 μM, 0.1 μM, 0.05 μM, 0.01 μM, 0.005 μM, 0.001 μM, and 0.00005 μM, respectively, and then 15 μl of the HDAC solution was added into the reaction wells (15 μl of blank buffer to the control well). […] The results were analyzed by GraphPad Prism software and IC50 values were calculated according to the formula: Y=Background Data+(Top Data−Background Data)/(1+10^((Log IC50−X) a curve slope)), where Y: the inhibition rate (%) and X: the concentration of the compound.

HCT116 cells [1] = assay: Therapeutic effect on the colon cancer HCT116 subcutaneous tumor model (intragastric); conditions: 8 times, vs solvent group
HDAC2 = HDAC2 (Homo sapiens, UniProt Q92769); conditions: read-out: IC50 HDAC2
Protocol: (§1) The HDAC inhibitory activity was determined by fluorescence-coupled acetylated peptide substrate assay (Lys-Ac-AMC). HDAC1 protein was purchased from BPS Bioscience, and the reaction buffer system was a modified tris(hydroxymethyl)aminomethane buffer (pH 7.0). The small molecule compounds of the present invention were prepared by being dissolved in 100% DMSO. HDAC was prepared in a buffer at a certain concentration as an enzyme solution; trypsin and fluorescent group 4-amino-7-coumarin coupled-acetylated peptide (Ac-peptide) substrate were prepared in a buffer at a certain concentration as a substrate solution. The compounds were added into the reaction wells in a 384-well plate at a designed concentration of 10 μM, 1 μM, 0.5 μM, 0.1 μM, 0.05 μM, 0.01 μM, 0.005 μM, 0.001 μM, and 0.00005 μM, respectively, and then 15 μl of the HDAC solution was added into the reaction wells (15 μl of blank buffer to the control well). […] The results were analyzed by GraphPad Prism software and IC50 values were calculated according to the formula: Y=Background Data+(Top Data−Background Data)/(1+10^((Log IC50−X) a curve slope)), where Y: the inhibition rate (%) and X: the concentration of the compound.

Lung cancer A549 = assay: Cell proliferative activity (MTT / cck-8); assay type: cell-based; conditions: Homo sapiens, read-out: Half-Inhibitory Concentration IC50 A549
HDAC10 = HDAC10 (Homo sapiens, UniProt Q969S8); conditions: read-out: IC50 HDAC10; Table 4, Class IIb
Protocol: as §1

[2] = tested on: Human lung cancer cell H460; assay: Cell proliferative activity (MTT / cck-8); assay type: cell-based
Summary of the method: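 Plating density was 2000-3000 log-phase cells/well, and adherent cells attached before compound exposure. Endpoint: CCK-8 for lymphoma cells, MTT for solid-tumour cells.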

A2780s cells = conditions: A2780s model, 16 times; for tumor inhibitory rate: vs solvent group
Colon cancer HCT116 = assay: Cell proliferative activity (MTT / cck-8); assay type: cell-based; conditions: Homo sapiens, HCT-116, read-out: Half-Inhibitory Concentration IC50 HCT116
HDAC6 = target: T1, HDAC6 (Homo sapiens, UniProt Q9UBN7); assay: HDAC inhibitory activity, fluorescence-coupled acetylated peptide substrate assay; assay type: biochemical
T1 sequence (Q9UBN7 1-1215): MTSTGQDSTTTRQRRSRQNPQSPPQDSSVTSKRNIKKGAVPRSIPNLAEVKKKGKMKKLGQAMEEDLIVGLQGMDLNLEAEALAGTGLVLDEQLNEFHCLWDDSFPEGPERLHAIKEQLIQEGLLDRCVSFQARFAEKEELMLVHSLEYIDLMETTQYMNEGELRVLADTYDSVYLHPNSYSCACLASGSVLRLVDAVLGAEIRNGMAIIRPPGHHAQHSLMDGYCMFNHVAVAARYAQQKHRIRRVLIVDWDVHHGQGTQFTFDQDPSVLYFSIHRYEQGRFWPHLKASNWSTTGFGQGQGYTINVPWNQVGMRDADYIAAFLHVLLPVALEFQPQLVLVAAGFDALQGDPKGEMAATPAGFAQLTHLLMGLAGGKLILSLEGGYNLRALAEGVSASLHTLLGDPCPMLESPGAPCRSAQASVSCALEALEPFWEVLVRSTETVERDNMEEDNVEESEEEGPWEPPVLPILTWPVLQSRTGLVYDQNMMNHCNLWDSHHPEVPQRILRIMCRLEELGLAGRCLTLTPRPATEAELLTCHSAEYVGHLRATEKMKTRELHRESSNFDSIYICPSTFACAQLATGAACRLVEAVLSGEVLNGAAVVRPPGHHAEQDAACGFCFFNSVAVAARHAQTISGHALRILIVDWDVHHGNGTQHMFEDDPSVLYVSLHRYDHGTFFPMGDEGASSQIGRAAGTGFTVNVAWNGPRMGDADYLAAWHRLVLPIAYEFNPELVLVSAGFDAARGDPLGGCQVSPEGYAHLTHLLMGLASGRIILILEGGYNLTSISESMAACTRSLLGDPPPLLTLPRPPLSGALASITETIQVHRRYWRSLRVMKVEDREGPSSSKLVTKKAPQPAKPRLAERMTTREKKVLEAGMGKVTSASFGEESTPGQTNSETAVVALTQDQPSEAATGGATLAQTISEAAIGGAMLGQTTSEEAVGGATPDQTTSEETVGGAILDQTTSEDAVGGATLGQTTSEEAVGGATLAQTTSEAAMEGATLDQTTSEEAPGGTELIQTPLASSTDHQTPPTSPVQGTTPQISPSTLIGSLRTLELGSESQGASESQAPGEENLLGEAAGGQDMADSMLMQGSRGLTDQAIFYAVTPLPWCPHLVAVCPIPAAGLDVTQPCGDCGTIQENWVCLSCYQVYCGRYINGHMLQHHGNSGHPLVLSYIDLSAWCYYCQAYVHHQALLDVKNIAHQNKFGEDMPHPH
Protocol: as §1

HDAC1 = target: T2, HDAC1 (Homo sapiens, UniProt Q13547); assay: HDAC inhibitory activity, fluorescence-coupled acetylated peptide substrate assay (Lys-Ac-AMC); assay type: biochemical
T2 construct: purchased BPS Bioscience
Protocol: as §1

Ramos cells = assay: Therapeutic effect on the B-cell lymphoma Ramos subcutaneous tumor model; assay type: in vivo, NOD/SCID mice; conditions: 6 times; for tumor inhibitory rate: vs solvent group
HBL-1 cells = assay: Therapeutic effect on the B-cell lymphoma HBL-1 subcutaneous tumor model; assay type: in vivo, NOD/SCID mice; conditions: HBL-1 model, 9 times, vs solvent group
MV4-11 cells = assay: Therapeutic effect on the MV4-11 acute myeloid leukemia model; assay type: in vivo, NOD/SCID mice; conditions: MV4-11 model, 50 mg/kg intravenously once every other day, 12 times
HCT116 cells [3] = assay: Therapeutic effect on the colon cancer HCT116 model (intravenous)
[4] = 12.5 mg/kg intragastrically once every other day
[5] = 25 mg/kg intragastrically once every other day
[6] = 50 mg/kg intragastrically once every other day
[7] = 10 mg/kg intragastrically once every other day
[8] = 20 mg/kg intragastrically once every other day
[9] = 40 mg/kg intragastrically once every other day
[10] = 80 mg/kg intragastrically once every other day

T2 sequence (Q13547 whole entry): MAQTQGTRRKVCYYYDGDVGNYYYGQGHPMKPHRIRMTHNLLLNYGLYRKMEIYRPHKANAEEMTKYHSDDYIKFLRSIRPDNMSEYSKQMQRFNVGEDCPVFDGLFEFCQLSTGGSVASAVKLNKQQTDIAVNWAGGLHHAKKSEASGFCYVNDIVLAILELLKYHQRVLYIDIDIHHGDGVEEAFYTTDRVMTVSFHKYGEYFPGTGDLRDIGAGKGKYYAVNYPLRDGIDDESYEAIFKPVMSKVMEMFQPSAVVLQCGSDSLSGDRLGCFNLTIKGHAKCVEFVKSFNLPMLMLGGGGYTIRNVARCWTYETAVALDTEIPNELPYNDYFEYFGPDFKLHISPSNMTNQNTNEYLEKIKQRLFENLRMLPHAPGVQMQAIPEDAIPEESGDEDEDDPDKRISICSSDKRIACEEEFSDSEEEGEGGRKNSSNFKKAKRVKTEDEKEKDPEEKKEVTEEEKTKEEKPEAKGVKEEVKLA
Chain of HDAC2 (Q92769 whole entry): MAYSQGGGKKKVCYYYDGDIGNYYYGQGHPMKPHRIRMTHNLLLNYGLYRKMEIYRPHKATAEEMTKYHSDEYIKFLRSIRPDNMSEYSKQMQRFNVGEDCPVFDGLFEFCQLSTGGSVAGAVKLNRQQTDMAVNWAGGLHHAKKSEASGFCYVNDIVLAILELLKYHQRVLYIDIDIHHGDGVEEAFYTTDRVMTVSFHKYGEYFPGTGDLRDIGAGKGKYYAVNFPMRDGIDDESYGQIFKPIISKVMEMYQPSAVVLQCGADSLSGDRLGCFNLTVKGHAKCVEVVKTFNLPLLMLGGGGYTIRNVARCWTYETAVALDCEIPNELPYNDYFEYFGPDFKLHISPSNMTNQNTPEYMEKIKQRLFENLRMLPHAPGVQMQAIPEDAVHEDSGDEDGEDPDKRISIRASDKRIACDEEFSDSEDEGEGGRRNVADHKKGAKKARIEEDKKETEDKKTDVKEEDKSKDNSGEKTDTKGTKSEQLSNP
Chain of HDAC3 (O15379 whole entry): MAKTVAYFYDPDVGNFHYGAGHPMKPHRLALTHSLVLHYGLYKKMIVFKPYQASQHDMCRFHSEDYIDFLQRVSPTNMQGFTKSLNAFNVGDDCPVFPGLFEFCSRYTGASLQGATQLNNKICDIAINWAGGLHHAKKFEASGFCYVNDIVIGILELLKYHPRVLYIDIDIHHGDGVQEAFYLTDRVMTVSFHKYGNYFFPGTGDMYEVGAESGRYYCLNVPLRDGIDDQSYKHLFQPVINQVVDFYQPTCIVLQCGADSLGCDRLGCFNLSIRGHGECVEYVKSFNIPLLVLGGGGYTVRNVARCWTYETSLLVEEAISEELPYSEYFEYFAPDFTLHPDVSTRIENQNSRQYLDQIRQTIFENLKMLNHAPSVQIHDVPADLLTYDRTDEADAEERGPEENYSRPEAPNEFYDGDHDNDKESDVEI
Chain of HDAC3 (Q9Y618 395-489 partner limits assumed): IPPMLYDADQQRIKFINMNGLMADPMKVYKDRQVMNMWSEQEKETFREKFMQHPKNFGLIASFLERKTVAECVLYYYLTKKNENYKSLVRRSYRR
Chain of HDAC10 (Q969S8 whole entry): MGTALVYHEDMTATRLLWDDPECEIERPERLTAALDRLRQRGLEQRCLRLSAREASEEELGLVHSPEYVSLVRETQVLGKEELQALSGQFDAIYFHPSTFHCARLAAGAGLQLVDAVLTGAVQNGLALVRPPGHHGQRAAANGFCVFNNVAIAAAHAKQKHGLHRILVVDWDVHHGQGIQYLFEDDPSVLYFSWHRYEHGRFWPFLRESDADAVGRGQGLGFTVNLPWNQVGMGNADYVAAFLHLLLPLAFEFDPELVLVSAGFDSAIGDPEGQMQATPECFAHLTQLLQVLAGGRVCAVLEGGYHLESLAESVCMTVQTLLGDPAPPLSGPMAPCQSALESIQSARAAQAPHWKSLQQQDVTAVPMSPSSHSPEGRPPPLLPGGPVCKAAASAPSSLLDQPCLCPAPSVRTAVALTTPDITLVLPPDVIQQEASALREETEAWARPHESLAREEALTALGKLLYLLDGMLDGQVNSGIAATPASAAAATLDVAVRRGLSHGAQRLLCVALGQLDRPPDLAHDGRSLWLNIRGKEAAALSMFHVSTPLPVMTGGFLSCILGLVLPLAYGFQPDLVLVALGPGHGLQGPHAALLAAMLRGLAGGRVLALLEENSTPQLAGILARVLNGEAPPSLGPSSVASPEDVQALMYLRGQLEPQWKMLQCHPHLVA

## COc1ccc(N(C)c2nc(C)nc3ccccc23)cc1OCCCC(=O)NO [III-2, N-hydroxy-4-(2-methoxy-5-(methyl(2-methyl-4-quinazolinyl)amino)phenoxy) butanamide]
Colon cancer HT29
  IC50: 72 ± 37 nM
HDAC3
  IC50: 439 ± 9 nM
HCT116 cells [1]; 6.25 mg/kg intragastrically once every other day
  tumor inhibitory rate: 51.28%
HCT116 cells [1]; [4]
  tumor inhibitory rate: 58.64%
HCT116 cells [1]; [5]
  tumor inhibitory rate: 60.37%
HCT116 cells [1]; [6]
  tumor inhibitory rate: 66.05%
HDAC2
  IC50: 386 ± 7 nM
Lung cancer A549
  IC50: 104 ± 29 nM
HDAC10
  IC50: 1180 ± 168 nM
[2]; NCI-H460, Lung cancer, Table 5, read-out: Half-Inhibitory Concentration IC50 H460
  IC50: 55 ± 13 nM
[2]; NCI-H460, incubated for 96 hours, read-out: Half-Inhibitory Concentration IC50 Human lung cancer cell H460
  IC50: 10 to 100 nM
A2780s cells; [4]
  tumor inhibitory rate: 78.49%
A2780s cells; [5]
  tumor inhibitory rate: 82.02%
A2780s cells; [6]
  death of mice during the experiment: one mouse died
  tumor inhibitory rate: 81.70%
Colon cancer HCT116
  IC50: 35 ± 21 nM
HDAC6; Table 2
  IC50: 10 to 100 nM
HDAC6; Table 4, Class IIb
  IC50: 17 ± 2 nM
HDAC1; Table 2
  IC50: 100 to 1000 nM
HDAC1; Table 4, Class I
  IC50: 422 ± 1 nM
Ramos cells; [7]
  tumor inhibitory rate: no effects on inhibiting tumor growth
Ramos cells; [8]
  tumor inhibitory rate: no effects on inhibiting tumor growth
Ramos cells; [9]
  tumor inhibitory rate: 22.54%
Ramos cells; 80 mg/kg intragastrically once every other day, a mouse died
  toxicity (death of mice during the experiment): may exhibit toxicity to a few individuals
Ramos cells; [10]
  tumor inhibitory rate: 58.79%
HBL-1 cells; [7]
  tumor inhibitory rate: 31.70%
HBL-1 cells; [8]
  tumor inhibitory rate: 25.23%
HBL-1 cells; [9]
  tumor inhibitory rate: 58.22%
HBL-1 cells; [10]
  tumor inhibitory rate: 56.88%
MV4-11 cells
  activity compared with positive control SAHA: superior to that of the positive control group SAHA
MV4-11 cells; compared with blank control, P<0.01
  tumor growth: significantly inhibited tumor growth
HCT116 cells [3]; 50 mg/kg intravenously once every other day, 9 times, vs blank control, P<0.01
  survival time of mice: significantly prolonged the survival time of mice
HCT116 cells [3]; 50 mg/kg intravenously, SAHA 50 mg/kg intraperitoneally
  effect prolonging the survival time compared with positive control group: superior to that of the positive control group
